“And” between values parts separate entries of the source, which are not always exact repeats. Equal values may be shown once.
Test system: 941728-121-R-J1-PDC complex spheroid viability
Experiment: Anticancer human tumor 941728-121-R-J1-PDC patient-derived lung adenocarcinoma cell line growth inhibition [RAS]
Conditions: for viability, T/C: stronger effect = lower value
Outline: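 Multi-cell-type spheroids: tumor cells plus HUVEC endothelial cells and mesenchymal stem cells. RAS-pathway inhibitors were combined with targeted agents, each dosed in half-log steps down from clinical Cmax, or from 10 microM when Cmax was unknown.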

[1] = curve of first compound, second compound 0.000949 µM
[2] = curve of first compound, second compound 0.003 µM
[3] = curve of first compound, second compound 0.00949 µM
[4] = curve of first compound, second compound 0.03 µM
[5] = curve of first compound, second compound 0.0949 µM
[6] = curve of first compound, second compound 0.3 µM
[7] = second compound 0.000949 µM, first compound 0.0316 µM
[8] = second compound 0.000949 µM, first compound 0.1 µM
[9] = second compound 0.000949 µM, first compound 0.316 µM
[10] = second compound 0.000949 µM, first compound 1 µM
[11] = second compound 0.003 µM, first compound 0.0316 µM
[12] = second compound 0.003 µM, first compound 0.1 µM
[13] = second compound 0.003 µM, first compound 0.316 µM
[14] = second compound 0.003 µM, first compound 1 µM
[15] = second compound 0.00949 µM, first compound 0.0316 µM
[16] = second compound 0.00949 µM, first compound 0.1 µM
[17] = second compound 0.00949 µM, first compound 0.316 µM
[18] = second compound 0.00949 µM, first compound 1 µM
[19] = second compound 0.03 µM, first compound 0.0316 µM
[20] = second compound 0.03 µM, first compound 0.1 µM
[21] = second compound 0.03 µM, first compound 0.316 µM
[22] = second compound 0.03 µM, first compound 1 µM
[23] = second compound 0.0949 µM, first compound 0.0316 µM
[24] = second compound 0.0949 µM, first compound 0.1 µM
[25] = second compound 0.0949 µM, first compound 0.316 µM
[26] = second compound 0.0949 µM, first compound 1 µM
[27] = second compound 0.3 µM, first compound 0.0316 µM
[28] = second compound 0.3 µM, first compound 0.1 µM
[29] = second compound 0.3 µM, first compound 0.316 µM
[30] = second compound 0.3 µM, first compound 1 µM
[31] = compound alone, run of 07/09/2024
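Further: spheroids exposed to compounds for 7 days before readout.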
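Wherever viability, T/C is given: 100% = DMSO vehicle control viability.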

**Q.** What does the source list for `CCC(CC)c1cc(NC2CCC(N)C2)n2nccc2n1` (stereo unspecified) + CCn1c(-c2cc(N3CCN(C)CC3)cnc2C(C)OC)c2c3cc(ccc31)-c1csc(n1)CC(NC(=O)C1CC1C)C(=O)N1CCCC(N1)C(=O)OCC(C)(C)C2?
**A.** IC50 [1]: < 31.6 nM; IC50 [2]: < 31.6 nM; IC50 [3]: < 31.6 nM; IC50 [4]: < 31.6 nM; IC50 [5]: < 31.6 nM; IC50 [6]: < 31.6 nM; viability, T/C [7]: 29.4%; viability, T/C [8]: 28.1%; viability, T/C [9]: 27.6%; viability, T/C [10]: 32.5%; viability, T/C (second compound 0.000949 µM, first compound 3.16 µM): 15%; viability, T/C (second compound 0.000949 µM, first compound 10 µM): 41.4%; viability, T/C [11]: 23.7%; viability, T/C [12]: 21.6%; viability, T/C [13]: 20.7%; viability, T/C [14]: 26.8%; viability, T/C (second compound 0.003 µM, first compound 3.16 µM): 12.4%; viability, T/C (second compound 0.003 µM, first compound 10 µM): 39.3%; viability, T/C [15]: 18%; viability, T/C [16]: 16.2%; viability, T/C [17]: 20.5%; viability, T/C [18]: 24.7%; viability, T/C (second compound 0.00949 µM, first compound 3.16 µM): 14.5%; viability, T/C (second compound 0.00949 µM, first compound 10 µM): 41.5%; viability, T/C [19]: 14.8%; viability, T/C [20]: 15.4%; viability, T/C [21]: 19%; viability, T/C [22]: 21.2%; viability, T/C (second compound 0.03 µM, first compound 3.16 µM): 19.3%; viability, T/C (second compound 0.03 µM, first compound 10 µM): 51%; viability, T/C [23]: 14.2%; viability, T/C [24]: 15%; viability, T/C [25]: 16.5%; viability, T/C [26]: 21.4%; viability, T/C (second compound 0.0949 µM, first compound 3.16 µM): 18.7%; viability, T/C (second compound 0.0949 µM, first compound 10 µM): 50.8%; viability, T/C [27]: 13.3%; viability, T/C [28]: 15.2%; viability, T/C [29]: 17.8%; viability, T/C [30]: 20%; viability, T/C (second compound 0.3 µM, first compound 3.16 µM): 13.1%; viability, T/C (second compound 0.3 µM, first compound 10 µM): 49.1%

**Q.** What does the source list for `CCn1c(-c2cc(N3CCN(C)CC3)cnc2C(C)OC)c2c3cc(ccc31)-c1csc(n1)CC(NC(=O)C1CC1C)C(=O)N1CCCC(N1)C(=O)OCC(C)(C)C2` (stereo unspecified)?
**A.** viability, T/C (compound 0.000949 µM): 28.7% [middle of 8 runs]; viability, T/C (compound 0.003 µM): 23.8% [middle of 8 runs]; viability, T/C (compound 0.00949 µM): 17.1% [middle of 8 runs]; viability, T/C (compound 0.03 µM): 13.9% [middle of 8 runs]; viability, T/C (compound 0.0949 µM): 14.7% [middle of 8 runs]; viability, T/C (compound 0.3 µM): 13.4% [middle of 8 runs]; IC50 [31]: < 0.949 nM

**Q.** `CCn1c(-c2cccnc2C(C)OC)c2c3cc(ccc31)N1CCOC(CC(NC(=O)C(C(C)C)N(C)C(=O)C3(F)CCN(C(=O)C#CC(C)(C)N(C)C)CC3)C(=O)N3CCCC(N3)C(=O)OCC(C)(C)C2)C1` (stereo unspecified) was tested. Which viability, T/C (compound 0.000949 µM) did it give?
**A.** 22.6% [middle of 8 runs]

**Q.** What about the viability, T/C (compound 0.00949 µM) of the same molecule?
**A.** 24.6% [middle of 8 runs]

**Q.** What about the viability, T/C (compound 0.03 µM) of the same molecule?
**A.** 24.1% [middle of 8 runs]

**Q.** What about the viability, T/C (compound 0.0949 µM) of the same molecule?
**A.** 24.9% [middle of 8 runs]

**Q.** And the viability, T/C (compound 0.3 µM)?
**A.** 24.9% [middle of 8 runs]

**Q.** What about the IC50 [31] of the same molecule?
**A.** < 0.949 nM and 4.59 nM

**Q.** How did the viability, T/C (compound 0.0316 µM) turn out when `Nc1ccn(C2OC(CO)C(O)C2(F)F)c(=O)n1` (stereo unspecified) was run?
**A.** 56.4% [middle of 4 runs]

**Q.** And the viability, T/C (compound 0.1 µM)?
**A.** 57.3% [middle of 4 runs]

**Q.** What about the viability, T/C (compound 0.316 µM) of the same molecule?
**A.** 52.7% [middle of 4 runs]

**Q.** And the viability, T/C (compound 1 µM)?
**A.** 43% [middle of 4 runs]

**Q.** For `C=CC(=O)Nc1cc(Nc2nccc(-c3cn(C)c4ccccc34)n2)c(OC)cc1N(C)CCN(C)C` + CCn1c(-c2cccnc2C(C)OC)c2c3cc(ccc31)N1CCOC(CC(NC(=O)C(C(C)C)N(C)C(=O)C3(F)CCN(C(=O)C#CC(C)(C)N(C)C)CC3)C(=O)N3CCCC(N3)C(=O)OCC(C)(C)C2)C1, which IC50 [1] is on record?
**A.** < 3.16 nM

**Q.** And the IC50 [2]?
**A.** 382 nM

**Q.** And the IC50 [3]?
**A.** < 3.16 nM

**Q.** What about the IC50 [4] of the same molecule?
**A.** < 3.16 nM

**Q.** What about the IC50 [5] of the same molecule?
**A.** < 3.16 nM

**Q.** And the IC50 [6]?
**A.** < 3.16 nM

**Q.** And the viability, T/C (second compound 0.000949 µM, first compound 0.00316 µM)?
**A.** 24.4%

**Q.** What about the viability, T/C (second compound 0.000949 µM, first compound 0.01 µM) of the same molecule?
**A.** 22.9%

**Q.** And the viability, T/C [7]?
**A.** 16.2%

**Q.** What about the viability, T/C [8] of the same molecule?
**A.** 20.1%

**Q.** And the viability, T/C [9]?
**A.** 19.2%

**Q.** And the viability, T/C [10]?
**A.** 12.8%

**Q.** What about the viability, T/C (second compound 0.003 µM, first compound 0.00316 µM) of the same molecule?
**A.** 89.7%

**Q.** And the viability, T/C (second compound 0.003 µM, first compound 0.01 µM)?
**A.** 91.4%

**Q.** And the viability, T/C [11]?
**A.** 69.4%

**Q.** What about the viability, T/C [12] of the same molecule?
**A.** 69.9%

**Q.** What about the viability, T/C [13] of the same molecule?
**A.** 53.1%

**Q.** What about the viability, T/C [14] of the same molecule?
**A.** 35.4%

**Q.** What about the viability, T/C (second compound 0.00949 µM, first compound 0.00316 µM) of the same molecule?
**A.** 22.7%

**Q.** And the viability, T/C (second compound 0.00949 µM, first compound 0.01 µM)?
**A.** 18.3%

**Q.** What about the viability, T/C [15] of the same molecule?
**A.** 20.5%

**Q.** What about the viability, T/C [16] of the same molecule?
**A.** 19.2%

**Q.** What about the viability, T/C [17] of the same molecule?
**A.** 16.1%

**Q.** And the viability, T/C [18]?
**A.** 12.8%

**Q.** And the viability, T/C (second compound 0.03 µM, first compound 0.00316 µM)?
**A.** 25.8%

**Q.** What about the viability, T/C (second compound 0.03 µM, first compound 0.01 µM) of the same molecule?
**A.** 20.8%

**Q.** And the viability, T/C [19]?
**A.** 16.8%

**Q.** What about the viability, T/C [20] of the same molecule?
**A.** 16.9%

**Q.** What about the viability, T/C [21] of the same molecule?
**A.** 14.2%

**Q.** And the viability, T/C [22]?
**A.** 15.5%

**Q.** And the viability, T/C (second compound 0.0949 µM, first compound 0.00316 µM)?
**A.** 22%

**Q.** What about the viability, T/C (second compound 0.0949 µM, first compound 0.01 µM) of the same molecule?
**A.** 22.4%

**Q.** What about the viability, T/C [23] of the same molecule?
**A.** 20.7%

**Q.** What about the viability, T/C [24] of the same molecule?
**A.** 16.6%

**Q.** What about the viability, T/C [25] of the same molecule?
**A.** 15.9%

**Q.** And the viability, T/C [26]?
**A.** 17.2%

**Q.** What about the viability, T/C (second compound 0.3 µM, first compound 0.00316 µM) of the same molecule?
**A.** 22.5%

**Q.** What about the viability, T/C (second compound 0.3 µM, first compound 0.01 µM) of the same molecule?
**A.** 21.6%

**Q.** And the viability, T/C [27]?
**A.** 21.3%

**Q.** And the viability, T/C [28]?
**A.** 20.1%

**Q.** And the viability, T/C [29]?
**A.** 21.7%

**Q.** What about the viability, T/C [30] of the same molecule?
**A.** 21.4%

— PubChem BioAssay AID2060896 (Molecular Pharmacology Branch, DTP, NCI, 2025)
